Data reported in ChEMBL document CHEMBL4266060, “Structure-Property Relationship Studies of Influenza A Virus AM2-S31N Proton Channel Blockers” (ACS Med Chem Lett, 2018).

Each molecule was assayed on Matrix protein 2 (Influenza A virus (A/Udorn/307/1972(H3N2))), P0DOF8 [S31N] (assay: Inhibition of Influenza A virus AM2 S31N mutant expressed in xenopus laevis frog oocytes assessed as inhibition of channel current at 100 uM after 2 mins by two-electrode voltage clamp assay relative to control).
Format: cell-based
`OC12CC3CC(C1)CC(NCc1cc(Br)cs1)(C3)C2` gave an inhibition of 56.6%.
Work on `Brc1ccc(CNC23CC4CC(CC(C4)C2)C3)[se]1` yielded an inhibition of 70.6%.
In the case of `OC12CC3CC(C1)CC(NCc1ccc(-c4ccc(F)cc4F)s1)(C3)C2`, the inhibition is reported as 74.5%.
`c1csc(-c2ccc(CNC34CC5CC(CC(C5)C3)C4)s2)c1` showed an inhibition of 86.1%.
Work on `OC12CC3CC(C1)CC(NCc1ccc(I)s1)(C3)C2` yielded an inhibition of 75.6%.
Molecule `COC(=O)c1ccc(-c2ccc(CNC34CC5CC(CC(O)(C5)C3)C4)s2)cc1` has an inhibition of 64.3%.
`COc1ccc(-c2ccc(CNC34CC5CC(CC(O)(C5)C3)C4)s2)cc1OC` showed an inhibition of 37.6%.
With `OC12CC3CC(C1)CC(NCc1nc(Br)cs1)(C3)C2` the inhibition was 36%.
With `Brc1ccc(CNC23CCC4CC(CC(C4)C2)C3)s1` the inhibition was 72.6%.
For `CSc1ccccc1-c1ccc(CNC23CC4CC(CC(O)(C4)C2)C3)s1`, the inhibition was 73.4%.
Molecule `OC12CC3CC(C1)CC(NCc1csc(Br)c1)(C3)C2` has an inhibition of 48.3%.
In the case of `OC12CC3CC(C1)CC(NCc1cnc(Br)s1)(C3)C2`, the inhibition is reported as 33.5%.
`COc1ncc(-c2ccc(CNC34CC5CC(CC(O)(C5)C3)C4)s2)cn1` was tested, and the inhibition was 4.4%.
For `Ic1ccc(CNC23CC4CC(CC(C4)C2)C3)s1`, the inhibition was 78.5%.
In the case of `OC12CC3CC(C1)CC(NCc1ccc(-c4ccccc4)s1)(C3)C2`, the inhibition is reported as 84.6%.
Work on `OC12CC3CC(C1)CC(NCc1ccc(Br)s1)(C3)C2` yielded an inhibition of 64.7%.
Work on `COc1ccc(-c2ccc(CNC34CC5CC(CC(O)(C5)C3)C4)s2)cn1` yielded an inhibition of 68.3%.
Molecule `OC12CC3CC(C1)CC(NCc1ccc(-c4ccccc4Cl)s1)(C3)C2` has an inhibition of 78.7%.
